Data published in US20070276017A1, “Thiadiazoline Derivative” (priority 2003, published 2007).

Assays:
human Eg5 motor domain = target: T1, human Eg5 motor domain (Homo sapiens, UniProt P52732); assay: Eg5 enzyme inhibition test (2): ATPase activity of recombinant human Eg5 motor domain; assay type: biochemical; settings: tubulin/paclitaxel, 30° C. for 30 minutes, concentration-dependent inhibition
T1 construct: A plasmid expressing the motor domain of human Eg5 was constructed; made in house; host or cells: Escherichia coli BL21 (DE3)
T1 sequence (P52732 18-359 limits assumed): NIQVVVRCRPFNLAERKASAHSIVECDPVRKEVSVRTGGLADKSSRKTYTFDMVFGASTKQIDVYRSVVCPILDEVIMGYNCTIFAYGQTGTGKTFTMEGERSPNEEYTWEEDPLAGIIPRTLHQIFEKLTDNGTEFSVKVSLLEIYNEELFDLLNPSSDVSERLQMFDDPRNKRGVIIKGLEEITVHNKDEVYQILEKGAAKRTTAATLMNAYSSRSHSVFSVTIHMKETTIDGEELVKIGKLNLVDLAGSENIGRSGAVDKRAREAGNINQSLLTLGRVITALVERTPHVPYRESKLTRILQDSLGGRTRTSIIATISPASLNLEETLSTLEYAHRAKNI
Experimental: A recombinant human Eg5 motor domain protein was prepared by referring to the literature [Biochemistry, Vol. 35, p. 2365 (1996)]. A plasmid expressing the motor domain of human Eg5 was constructed, and transformed into Escherichia coli BL21 (DE3). The transformant was cultured at 25° C., and when the OD600 reached 0.74, isopropyl-β-D-thiogalactoside was added at a final concentration of 0.5 mmol/L. The transformant was further cultured for 4 hours, and then the culture medium was centrifuged to collect the cells. The cells were suspended in a buffer and ultrasonicated, and then the sonicated solution was centrifuged to recover the supernatant. The supernatant was purified by cation exchange column chromatography to obtain a partially purified sample. Furthermore, the partially purified sample was purified by gel filtration column chromatography to obtain a finally purified sample.
Measurement of the ATPase activity of Eg5 was carried out by referring to the literatures [EMBO Journal, Vol. 13, p. 751 (1994); Proc. Natl. Acad. Sci. USA, Vol. 89, p. 4884 (1992)]. The following two kinds of solutions were prepared: Solution A consisting of 25 mmol/L piperazine N,N′-bis(ethanesulfonate) (PIPES)/KOH (pH 6.8), 1 mmol/L ethylene glycol-bis(2-aminoethyl ether)tetraacetic acid (EGTA), 2 mmol/L MgCl2, 1 mmol/L dithiothreitol (DTT), 5 μmol/L paclitaxel, 167 μg/mL bovine serum albumin (BSA), 41.7 μg/mL tubulin (Cytoskeleton, Catalog No. TL238), 333 μmol/L MESG substrate (2-amino-6-mercapto-7-methylpurine riboside) (Molecular Probes, Catalog Number E-6646), 1.67 U/mL purine nucleoside phosphorylase (Molecular Probe, Catalog No. E-6646) and 1.33 μg/mL of the human Eg5 motor domain purified sample, and Solution B consisting of 25 mmol/L piperazine N,N′-bis(ethanesulfonate) (PIPES)/KOH (pH 6.8), 1 mmol/L ethylene glycol-bis(2-aminoethyl ether)tetraacetic acid (EGTA), 2 mmol/L MgCl2, 1 mmol/L dithiothreitol (DTT), 5 μmol/L paclitaxel and 2.5 mmol/L ATP. Solution A was dispensed into each well of a 96-well plate as 45 μL portions. Solution B was used to serially dilute a test compound. The diluted test compound solutions in a volume of 30 μL were mixed with Solution A added beforehand in each well of the 96-well plate to start the enzymatic reaction. The enzymatic reaction was performed at 30° C. for 30 minutes. Absorbance at 360 nm, which serves as an index of the ATPase activity, was measured using a plate reader (Molecular Device, SpectraMax 340PC^384). The absorbance observed in the presence of Eg5 and absence of the test compound was defined 100%, and the absorbance observed in the absence of both Eg5 and the test compound was defined 0%. The relative activity was calculated to calculate IC50 value.

[1] = system: HCT 116 human colon carcinoma cells; assay: Antiproliferative activity against HCT 116 human colon carcinoma cells (XTT, 72 hours); assay type: cell-based; settings: read-out: GI50, concentration of compound which induces 50% inhibition of cell proliferation, HCT 116 cells, 72 hours incubation
Experimental: HCT 116 cells (ATCC No.: CCL-247) were placed on a 96-well microtiter plate (Nunc, 167008) at a density of 1×10^3 cells/well. The plate was incubated in a 5% CO2 incubator at 37° C. for 24 hours, and then to the plate was added test compounds diluted stepwise to […] in total, and the plate was further incubated in a 5% CO2 incubator at 37° C. for 72 hours. To the culture medium, the XTT (sodium 3′-[1-(phenylaminocarbonyl)-3,4-tetrazolium]-bis(4-methoxy-6-nitro)benzenesulfonic acid hydrate) labeling mixture (Roche Diagnostics, 1465015) was dispensed in […] portions, then the plate was incubated in a 5% CO2 incubator at 37° C. for 1 hour, and the absorbance was measured at 490 nm and 655 nm with a microplate spectrophotometer (Bio-Rad, Model 550).
GI50 calculation method: The value (difference in absorbance) was calculated by subtracting the absorbance at 655 nm from the absorbance at 490 nm of each well.

SMILES | IC50 (human Eg5 motor domain) [µM] | GI50 [1] [µM]
CC(=O)N1N=C(NC(=O)C(C)(C)C)SC1(CCCN)c1ccccc1 (stereo not drawn) [Compound 88] | ≤ 5 | –
CC(C)(C)C(=O)NC1=NN(C(=O)C(C)(C)C)C(COC(=O)NCCN2CCCC2)(c2ccccc2)S1 (stereo not drawn) [Compound 181] | ≤ 5 | < 10
CC(C)(C)C(=O)NC1=NN(C(=O)C(C)(C)C)C(CCNC(=O)C2CCCN2)(c2ccccc2)S1 (stereo not drawn) [Compound 59] | ≤ 5 | < 10
CN(C)CCS(=O)(=O)NCCCC1(c2ccccc2)SC(N2CCCCC2=O)=NN1C(=O)C(C)(C)C (stereo not drawn) [Compound 85] | ≤ 5 | < 10
COC(=O)N1CCN(CCCC2(c3ccccc3)SC(NC(=O)C(C)(C)C)=NN2C(=O)C(C)(C)C)CC1 (stereo not drawn) [Compound 122] | ≤ 5 | < 10
CC(=O)N1N=C(N2CCCC2=O)SC1(CCCN)c1ccccc1 (stereo not drawn) [Compound 90] | ≤ 5 | –
CC(C)(C)C(=O)NC1=NN(C(=O)C(C)(C)C)C(CCCNC(CO)CO)(c2ccccc2)S1 (stereo not drawn) [Compound 76] | ≤ 5 | < 10
CC(C)(C)C(=O)N1N=C(N2CCCCC2=O)SC1(CCCN)c1ccccc1 (stereo not drawn) [Compound 83] | ≤ 5 | –
CC(=O)N1N=C(N2CCCCC2=O)SC1(CCNC(=O)CCCN(C)C)c1ccccc1 (stereo not drawn) [Compound 144] | ≤ 5 | < 10

Other lines, results leading:

IC50 (human Eg5 motor domain) [µM] | GI50 [1] [µM] | SMILES
≤ 5 | – | CC(C)(C)C(=O)NC1=NN(C(=O)C(C)(C)C)C(CCCNCCCO)(c2ccccc2)S1 (stereo not drawn) [Compound 29]
≤ 5 | – | CNCCCC1(c2ccccc2)SC(NC(=O)C(C)(C)C)=NN1C(=O)C(C)(C)C (stereo not drawn) [Compound 23]
≤ 5 | – | CCOCCNCCC1(c2ccccc2)SC(NC(=O)C(C)(C)C)=NN1C(=O)C(C)(C)C (stereo not drawn) [Compound 3]
≤ 5 | 0.065 | CC(C)(C)C(=O)NC1=NN(C(=O)C(C)(C)C)C(CCNCCCN2CCCC2=O)(c2ccccc2)S1 (stereo not drawn) [Compound 9]
≤ 5 | – | CC(C)(C)C(=O)NC1=NN(C(=O)C(C)(C)C)C(CCCNC(=O)CN)(c2ccccc2)S1 (stereo not drawn) [Compound 73]
